Where “and” joins values, the source holds several entries; their conditions need not be identical. Identical values can stand only once.
Key:
IRE1α = conditions: Fig. 1b; read-out: IC50 of reported IRE1α inhibitor; cited from earlier work
[1] = test system: XBP1 mRNA splicing in A549 cells; experiment: RT-qPCR of ER stress-induced XBP1 mRNA splicing, A549; type: cell-based, human; conditions: Fig. 7c, 0.5μg/mL Tm, individual replicates
Description: (§1) A549 cells, HCT 116 cells, and HT-29 cells were collected and seeded in 6-well plates at a density of 5 × 10^5 cells per well and cultured overnight to attach, then treated with compound or DMSO for 2 h, then 0.5 μg/mL final concentration of tunicamycin (Tm, MP Biomedi, 0215002805) were added to induce the ER stress for 2 h. After treatment, total RNA was purified using an RNeasy mini kit (Qiagen, 74106). 500 ng of total RNA was used for reverse transcription using the High-Capacity cDNA Reverse Transcription Kits (Thermo Fisher, 4368814). cDNA was diluted 1: 5 using RNase-free water, and 1 μL CDNA was used for each qPCR reaction. The qPCR was performed using PowerUp™ SYBR™ Green Master Mix (Thermo Fisher, A25742) with 10 µL reaction volume using Bio-Rad CFX96 Real-Time PCR Detection System following the standard cycling mode (primer Tm ≥ 60 °C) on the manufacturer’s protocol. Data was analyzed using the 2^- ΔΔCt method. The primers used are listed in Supplementary Table S3. The inhibition % was calculated by using the equation: inhibition% = 100× (normalized Tm control - normalized of the sample)/(normalized Tm control - normalized DMSO control). Tm control: Cells treated with tunicamycin; DMSO control: Cells treated with DMSO only.

[2] = test system: XBP1 mRNA splicing in HT-29 cells; experiment: RT-qPCR of ER stress-induced XBP1 mRNA splicing, HT-29; type: cell-based, human; conditions: HT-29
Description: as §1

[3] = test system: XBP1 mRNA splicing in HCT 116 cells; experiment: RT-qPCR of ER stress-induced XBP1 mRNA splicing, HCT 116; type: cell-based, human; conditions: HCT116
Description: as §1

[4] = test system: IRE1α transcription level in HCT 116 cells; experiment: RT-qPCR of IRE1α transcription level, HCT 116; type: cell-based, human; conditions: HCT116
Description: as §1

[5] = test system: IRE1α transcription level in HT-29 cells; experiment: RT-qPCR of IRE1α transcription level, HT-29; type: cell-based, human; conditions: HT-29
Description: as §1

[6] = test system: IRE1α transcription level in A549 cells; experiment: RT-qPCR of IRE1α transcription level, A549; type: cell-based, human; conditions: A549
Description: as §1

[7] = target: T1, dephosphorylated IRE1α (547–977) (Homo sapiens, UniProt O75460); experiment: FRET-based IRE1α RNase activity assay, dephosphorylated IRE1α; type: biochemical
T1 construct: Human IRE1α kinase and RNase domain (residues 547–977) was subcloned into pLIB plasmid; His tag (with TEV cleavage site) (N, cleaved yes); made in house; host or cells: Sf9 insect cells, baculovirus (Bac-to-Bac)
Summary of the method: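 Dephosphorylated human IRE1α (residues 547–977, Sf9-expressed, λ-phosphatase treated), 40 nM, preincubated 30 min with compound at room temperature, then 100 nM FAM/BHQ1 XBP1 RNA added in HEPES pH 7.5 buffer. Fluorescence (485/535 nm) read kinetically for 1 h; inhibition from linear-phase slopes versus DMSO, fitted to IC50.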

[8] = target: T2, p-IRE1α dimerization and oligomerization (Homo sapiens, UniProt O75460); experiment: DSS cross-linking assay with mass photometry; conditions: 100 μM compound, DSS crosslinking
T2 construct: Human IRE1α kinase and RNase domain (residues 547–977) was subcloned into pLIB plasmid; His tag (with TEV cleavage site) (N, cleaved yes); made in house; host or cells: Sf9 insect cells, baculovirus (Bac-to-Bac)
Description: Phosphorylated IRE1α (p-IRE1α) and compounds were incubated 30 min at room temperature, with a final concentration of 2 μM p-IRE1α and 100 μM of the indicated compound, in a buffer containing 20 mM HEPES, pH 7.5, 50 mM KOAc, 1 mM MgOAc2, 1 mM DTT, 0.05% v/v TritonX-100, in a total reaction volume of 20 μL. After incubation, DSS (disuccinimidyl suberate, Thermo Fisher, A39267) was added to the reaction at a final concentration of 250 μM to induce crosslinking at room temperature for 1 h. Tris (pH 7.5) was added to a final concentration of 50 mM to stop the reaction. Samples were further measured with a mass photometry instrument (Refeyn Ltd). The PBS buffer was used for the mass photometry measurement. The instrument was calibrated with BSA and TG protein mixture in PBS. Samples were diluted to a protein concentration of 100 nM with buffer before measurement. Then, 18 μL PBS buffer was added to the center of the gasket on the coverslips to check and find the focus. Afterward, 2 μL of the diluted sample was added, mixed, and measured. Data were analyzed using Discover MP software, for each sample, results from 3 individual measurements were merged.

[9] = target: T3, phosphorylated IRE1α (p-IRE1α) (Homo sapiens, UniProt O75460); experiment: FRET-based IRE1α RNase activity assay, phosphorylated IRE1α; type: biochemical
T3 construct: Human IRE1α kinase and RNase domain (residues 547–977) was subcloned into pLIB plasmid; His tag (with TEV cleavage site) (N, cleaved yes); made in house; host or cells: Sf9 insect cells, baculovirus (Bac-to-Bac)
Summary of the method: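 Sf9-expressed IRE1α kinase-RNase domain (residues 547–977), fully phosphorylated fraction, 4 nM, preincubated with compound 30 min at RT, then 200 nM FAM/BHQ1 XBP1 RNA added in HEPES pH 7.5 buffer. Fluorescence (ex 485/em 535 nm) read kinetically for 1 h at RT; inhibition from linear slopes, IC50 by concentration-response fit.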

T2 sequence (O75460 547-977): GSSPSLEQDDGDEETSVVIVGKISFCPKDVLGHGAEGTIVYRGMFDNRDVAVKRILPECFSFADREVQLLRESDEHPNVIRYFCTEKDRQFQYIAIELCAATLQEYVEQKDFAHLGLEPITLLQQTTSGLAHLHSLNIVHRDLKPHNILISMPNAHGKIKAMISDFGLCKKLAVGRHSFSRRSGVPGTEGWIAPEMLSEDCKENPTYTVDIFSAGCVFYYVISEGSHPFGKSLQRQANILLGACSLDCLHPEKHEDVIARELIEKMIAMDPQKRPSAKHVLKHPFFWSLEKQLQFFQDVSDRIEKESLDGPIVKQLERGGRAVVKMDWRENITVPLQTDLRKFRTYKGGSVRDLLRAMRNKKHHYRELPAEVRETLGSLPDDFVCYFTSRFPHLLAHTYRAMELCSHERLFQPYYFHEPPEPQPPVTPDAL
T1 sequence (O75460 547-977): as above
T3 sequence (O75460 547-977): as above

SMILES: Cc1cc(=O)oc2c(C=O)c(O)ccc12 [Compound 4μ8c]
- IC50 (IRE1α): 76 nM

SMILES: CN1CCC(CNc2cc(Cl)nn3c(-c4cc5nc(Nc6ccccc6)[nH]c5cc4F)cnc23)CC1 [Compound 31]
- IC50 (IRE1α): 80 nM

SMILES: Cc1ccc(C)c(NC(=O)NC(C)CCc2ccc(O)cc2)c1 (stereo not drawn) [Compound Z4P]
- IC50 (IRE1α): 3140 nM

SMILES: CCOC(=O)CCc1c(C)n(C(=O)c2ccccc2)c2ccc(Br)cc12 [IA105]
- Relative XBP1s/Actin ([1]; 0.009 μM): 2.671 and 2.32 and 2.971 and 2.381
- Relative XBP1s/Actin ([1]; 0.027 μM): 2.362 and 2.303 and 2.482 and 2.4563
- Relative XBP1s/Actin ([1]; 0.082 μM): 2.039 and 2.057 and 2.192 and 2.023
- Relative XBP1s/Actin ([1]; 0.247 μM): 1.808 and 1.675 and 1.769 and 1.486
- Relative XBP1s/Actin ([1]; 0.741 μM): 1.216 and 1.256 and 1.279 and 1.145
- Relative XBP1s/Actin ([1]; 2.22 μM): 1.073 and 0.792 and 1.044 and 0.8663
- Relative XBP1s/Actin ([1]; 6.67 μM): 1.0995 and 1.154 and 1.208 and 1.113
- Relative XBP1s/Actin ([1]; 20 μM): 1.054 and 1.019 and 1.028 and 0.9077
- Relative XBP1s/Actin ([2]; 0.003 μM): 11.684 and 10.815 and 12.821 and 10.854
- Relative XBP1s/Actin ([2]; 0.009 μM): 11.469 and 10.431 and 11.317 and 10.144
- Relative XBP1s/Actin ([2]; 0.027 μM): 12.267 and 11.074 and 12.013 and 10.900
- Relative XBP1s/Actin ([2]; 0.082 μM): 8.652 and 8.438 and 8.782 and 8.518
- Relative XBP1s/Actin ([2]; 0.247 μM): 4.629 and 4.592 and 4.962 and 3.379
- Relative XBP1s/Actin ([2]; 0.741 μM): 1.283 and 1.309 and 1.516 and 1.277
- Relative XBP1s/Actin ([2]; 2.22 μM): 1.103 and 1.024 and 1.015 and 0.976
- Relative XBP1s/Actin ([2]; 6.67 μM): 0.958 and 0.872 and 0.904 and 0.841
- Relative XBP1s/Actin ([2]; 20 μM): 1.096 and 1.163 and 1.053 and 0.889
- Relative XBP1s/Actin ([3]; 0.009 μM): 5.428 and 5.195 and 5.7981 and 4.548
- Relative XBP1s/Actin ([3]; 0.027 μM): 5.989 and 4.76 and 5.372 and 4.813
- Relative XBP1s/Actin ([3]; 0.082 μM): 5.025 and 4.655 and 4.826 and 4.338
- Relative XBP1s/Actin ([3]; 0.247 μM): 4.351 and 4.263 and 4.713 and 3.571
- Relative XBP1s/Actin ([3]; 0.741 μM): 2.654 and 2.493 and 2.725 and 2.232
- Relative XBP1s/Actin ([3]; 2.22 μM): 1.206 and 0.9713 and 1.3073 and 1.15
- Relative XBP1s/Actin ([3]; 6.67 μM): 1.256 and 1.21 and 1.297 and 1.076
- Relative XBP1s/Actin ([3]; 20 μM): 1.065 and 0.9931 and 0.9536 and 0.8918
- Relative IRE1α/Actin ([4]; 0.009 μM): 0.982 and 0.954 and 1.279 and 1.057
- Relative IRE1α/Actin ([4]; 0.027 μM): 1.271 and 1.075 and 1.281 and 1.112
- Relative IRE1α/Actin ([4]; 0.082 μM): 0.845 and 0.871 and 0.924 and 0.835
- Relative IRE1α/Actin ([4]; 0.247 μM): 0.966 and 1.085 and 1.076 and 0.890
- Relative IRE1α/Actin ([4]; 0.741 μM): 0.990 and 1.042 and 1.123 and 0.879
- Relative IRE1α/Actin ([4]; 2.22 μM): 1.133 and 1.010 and 1.231 and 1.072
- Relative IRE1α/Actin ([4]; 6.67 μM): 1.059 and 0.972 and 1.144 and 0.971
- Relative IRE1α/Actin ([4]; 20 μM): 1.034 and 0.915 and 0.978 and 0.882
- Relative IRE1α/Actin ([5]; 0.003 μM): 1.012 and 1.008 and 1.050 and 0.980
- Relative IRE1α/Actin ([5]; 0.009 μM): 0.917 and 0.954 and 1.053 and 0.909
- Relative IRE1α/Actin ([5]; 0.027 μM): 1.104 and 0.811 and 1.025 and 1.043
- Relative IRE1α/Actin ([5]; 0.082 μM): 0.794 and 0.825 and 1.037 and 0.844
- Relative IRE1α/Actin ([5]; 0.247 μM): 0.885 and 0.861 and 0.831 and 0.823
- Relative IRE1α/Actin ([5]; 0.741 μM): 0.783 and 0.766 and 0.908 and 0.750
- Relative IRE1α/Actin ([5]; 2.22 μM): 0.956 and 0.812 and 1.017 and 0.944
- Relative IRE1α/Actin ([5]; 6.67 μM): 0.712 and 0.683 and 0.754 and 0.735
- Relative IRE1α/Actin ([5]; 20 μM): 1.089 and 1.044 and 0.863 and 0.952
- Relative IRE1α/Actin ([6]; 0.009 μM): 1.097 and 0.928 and 1.209 and 0.916
- Relative IRE1α/Actin ([6]; 0.027 μM): 1.090 and 0.987 and 1.064 and 0.939
- Relative IRE1α/Actin ([6]; 0.082 μM): 1.050 and 1.155 and 1.127 and 1.034
- Relative IRE1α/Actin ([6]; 0.247 μM): 1.053 and 1.161 and 1.037 and 0.961
- Relative IRE1α/Actin ([6]; 0.741 μM): 0.957 and 1.053 and 0.856 and 0.910
- Relative IRE1α/Actin ([6]; 2.22 μM): 1.022 and 0.873 and 1.063 and 1.025
- Relative IRE1α/Actin ([6]; 6.67 μM): 0.890 and 0.939 and 0.992 and 0.722
- Relative IRE1α/Actin ([6]; 20 μM): 1.131 and 1.096 and 0.934 and 0.949

SMILES: CC1(c2nc(-c3ccc(NC(=O)Nc4cccc(F)c4)c4ccccc34)c3c(N)nccn23)CC1 [KIRA7]
- IC50 (IRE1α): 110 nM

SMILES: COc1cc2c(C)c(CC(=O)N3CCOCC3)c(=O)oc2c(C=O)c1O [MCK8866]
- IC50 (IRE1α): 390 nM

SMILES: COCCOCCc1c(C)c2cc(OC)c(O)c(C=O)c2oc1=O [MCK9989]
- IC50 (IRE1α): 290 nM

SMILES: O=S(=O)(N=Cc1c(O)ccc2ccccc12)c1cccs1 [STF-083010]
- IC50 (IRE1α): 25000 nM

SMILES: CN[C@@H]1C[C@H]2O[C@@](C)([C@@H]1OC)n1c3ccccc3c3c4c(c5c6ccccc6n2c5c31)C(=O)NC4 [STS, staurosporine, reference compound]
- effect on IRE1α RNase activity in the FRET assay [7]: activated the RNase activity
- effect on p-IRE1α dimerization/oligomerization [8]: did not affect the dimerization and oligomerization
- effect on p-IRE1α RNase activity in the FRET assay [9]: did not affect the RNase activity
